# Legend:
# KPC cells [1] = experiment: Autophagy (LC3B, p62) and PD-L1 expression by IF staining and immunoblotting; assay type: cell-based, mouse; conditions: IRIN 300 µM or OX 500 µM, 24 h
# Method: KPC cells were seeded in the µ-Slide 8 well. After cell attachment, the cells were treated by IRIN at 300 µM for 24 h. Control treatments included exposure to PBS, chloroquine (32 µM), rapamycin (100 nM) and IFN-γ (10 ng/ml). Before IF staining, the cells were washed with PBS and fixed with 4% paraformaldehyde at RT for 15 minutes. Cells were treated in 1% BSA (blocking reagent) plus 0.2% triton-X100 in PBS for 30 minutes. Subsequently, the cells were incubated with primary antibody that recognizes LC3B (Cell Signaling #2775, 1:200) or p62/SQSTM1 (Cell Signaling #23214, 1:800) in 1% BSA containing PBS solution at 4° C. overnight. The sample was washed twice in PBS and further stained using an Alexa Fluor® 488 conjugated goat anti-rabbit secondary antibody (Thermo Fisher, A-11008, 1:1000) and 5 µg/mL Hoechst 33342 dye for 1 h. Cell surface staining for PD-L1 assessment was carried out in fixed (4% paraformaldehyde) cells, using a staining process similar to the above protocol. Primary PD-L1 antibody (Abcam, ab213480, 1: 500) and Alexa Fluor® 594 conjugated goat anti-rabbit secondary antibody (Thermo Fisher, A-11012, 1:1000) were used. The cells were visualized using a Leica SP8-MD confocal microscope under the 100x objective lens.
# To confirm the confocal staining results for LC3B, p62 and PD-L1, western blotting experiments were performed in KPC cells exposed to IRIN (300 µM) or OX (500 µM) for 24 hr. Another experiment also looked at the dose-dependent effect of IRIN at concentrations of 75, 150, 300 and 600 µM for 24 h. Briefly, ~2×10^5 KPC cells per well were seeded in 6 well-plates. After drug exposure, KPC cells were harvested and treated with cold RIPA lysis buffer (Cell Signaling # 9806S), supplemented with a cocktail of protease and phosphatase inhibitors (Cell Signaling #5872) and incubated on ice for 30 mins. After centrifugation of the lysates at 12,000 rpm for 10 min, protein concentration was quantified by a Bradford assay (Biorad). Equal amounts of protein in the supernatants were loaded onto a 10-20% Tris-glycine SDS-PAGE gel (Invitrogen, Grand Island, NY). The proteins were subsequently transferred to a PVDF membrane. The membrane was blocked with 5% non-fat dry milk/TBST, before incubation with primary and HRP-conjugated secondary antibodies. The primary antibodies included: LC3B (Cell Signaling #2775), p62/SQSTM1 (Cell Signaling #5114), NF-κB p65 (Cell Signaling #8242), Phospho-NF-xB p65 (Cell Signaling #3033) and PD-L1 (Abcam, ab213480). The blots were developed by soaking in ECL substrate (Thermo Fisher Scientific). Densitometric analysis of each protein band on the film was quantified by ImageJ software and normalized to the intensity of a corresponding housekeeping protein.
# (§1) The of the IRIN silicasome on lysosomal alkalization was performed at drug concentrations of 75 µM and 300 µM in KPC cells. Empty silicasomes (in which a 500 µg/mL particle dose is representative of an encapsulated IRIN dose of 300 µM) was included as control. The assessment of LC3B, p62 and PD-L1 immunoblotting and IF staining were performed in KPC cells during treatment with the IRIN silicasome or empty silicasomes, as described for the free drug.
# KPC tumor = experiment: Vaccination experiment with dying chemo-treated KPC cells; assay type: in vivo, mouse
# Method: The vaccination schedule is highlighted in FIG. 2, panel C. Eight million KPC cells were seeded in a tissue culture dish. After cellular attachment, IRIN (300 µM or OX (500 µM were added for 24 h. Cells were collected and washed before resuspended in 0.8 mL cold PBS. For vaccination, each mouse received subcutaneous (SC) injection of a 100 µL suspension of chemo-treated cells in the right flank. Control animals received SC injection with 0.1 mL PBS. The vaccination was repeated after 7 days. Fourteen days after the 1st injection, the animals received SC injection of normal KPC cells (1 million cells in 0.1 mL PBS) in the contralateral (left) flank. Tumor growth was measured by a digital caliper every 2-3 days, and the tumor volume calculated according to the formula: length × width^2 /2. Animals were sacrificed on day 26 and the tumors were collected, weighed and fixed in 10% formalin, followed by paraffin embedding and sectioning to derive to 4 µm thick slices for IHC analysis. Primary antibodies to CD8 (#14-0808-82) and FoxP3 (#13-5773-82) were purchased from ThermoFisher. IHC staining was performed in the UCLA Translational Pathology Core Laboratory (TPCL). The slides were scanned and images assessed by using Aperio ImageScope software (Leica).
# KPC cells [2] = experiment: Lysosomal alkalization, LysoTracker Red DND 99 confocal microscopy; assay type: cell-based, mouse; conditions: CQ 32 µM, 24 h
# Method: Approximately 1.5×10^4 KPC cells were seeded in µ-Slide 8 well (ibidi, 80826). To reveal the intracellular distribution of IRIN, attached KPC cells were treated with IRIN (300 µM) for 24 h. Cell membranes were stained using an Alexa Fluor® 594 conjugated WGA dye (Invitrogen™, W11262) at 2 µg/mL for 10 minutes. After washing, the cells were visualized using a Leica SP8-MD confocal microscope under the 100× objective lens. The excitation and emission wavelengths for IRIN were 405 nm and 440~490 nm, respectively^[51]
# IRIN-treated KPC cells were washed and replenished with fresh media containing 100 nM DND-99 dye and 5 µg/mL Hoechst 33342 for nuclear staining. The cells were incubated at 37° C. for 0.5 h, followed by washing with phenol red free media. The cells were then visualized using a Leica SP8-MD confocal microscope under the 100× objective lens.
# as §1
# PDAC = conditions: resected PDAC patients; p < 0.01; cited from earlier work
compound,measurement,setting,value
O=C1[O][Pt]2([NH][C@@H]3CCCC[C@H]3[NH]2)[O]C1=O [oxaliplatin],PD-L1 expression,KPC cells [1],failed to upregulate PD-L1 expression
same,autophagy flux (Western blotting of LC3 and p62),KPC cells [1],induced autophagy
same,growth of tumor on the opposite flank vs PBS control,"KPC tumor; KPC cells treated with 300 µM IRIN or 500 µM OX, p <0.05",improved the shrinkage of the tumor on the opposite flank significantly
same,CD8+ staining number (IHC),"KPC tumor; harvested tumors, day 26",slight increase
same,CD8+/Treg cells ratio (IHC),"KPC tumor; harvested tumors, day 26",significantly (p <0.01) increased
chloroquine diphosphate salt,alkalizing effect on lysosomal pH,KPC cells [2],alkalizing effect of IRIN was duplicated
"Nc1ccn([C@@H]2O[C@H](CO)[C@@H](O)C2(F)F)c(=O)n1 [GEM, gemcitabine]",median overall survival,PDAC,35.0 months
